Molecular target: T1, human 5-HT6 receptor (Homo sapiens, UniProt P50406)
T1 construct: host or cells: CHO-K1 cells, stably transfected; membranes prepared in house
Test: Human 5-HT6 Receptor Binding Assay ([3H]LSD displacement, scintillation beads)
Conditions: membranes of CHO-K1 cells with recombinant human 5-HT6, 4 nM [3H]LSD; Table 1, class symbols; read-out: h5-HT6 (Ki)

T1 sequence (P50406 whole entry): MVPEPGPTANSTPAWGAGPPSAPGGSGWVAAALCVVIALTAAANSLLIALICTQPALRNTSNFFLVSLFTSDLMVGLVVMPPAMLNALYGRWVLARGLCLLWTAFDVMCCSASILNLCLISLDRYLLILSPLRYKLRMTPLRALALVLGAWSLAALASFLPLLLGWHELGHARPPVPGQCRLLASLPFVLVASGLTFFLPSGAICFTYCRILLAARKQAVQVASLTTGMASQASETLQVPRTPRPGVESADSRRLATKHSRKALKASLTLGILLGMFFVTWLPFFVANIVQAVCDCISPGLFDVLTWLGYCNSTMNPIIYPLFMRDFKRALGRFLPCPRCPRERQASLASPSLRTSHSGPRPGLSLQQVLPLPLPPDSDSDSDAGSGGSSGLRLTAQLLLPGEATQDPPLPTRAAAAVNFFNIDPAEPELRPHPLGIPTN

Row | Compound | Ki [nM]
1 | N#Cc1ccc(S(=O)(=O)c2ccc3c(c2)OC2CNCCC32)cc1 (stereo not shown) [Example 139] | > 1000
2 | O=S(=O)(NC1CCCCC1)c1ccc2c(c1)C1CCNCC1O2 (stereo not shown) [Example 849, N-cyclohexy1-1,2,3,4,4a,9a-hexahydro[1]benzofuro[2,3-c]pyridine-6-sulfonamide] | > 1000
3 | CC(C)Oc1cccc(S(=O)(=O)c2ccc3c(c2)OC2CNCCC32C)c1 (single isomer, unassigned) [Example 20, 4a-methyl-7-{[3-(propan-2-yloxy)phenyl]sulfonyl}-1,2,3,4,4a,9a-hexahydro[1]benzofuro[2,3-c]pyridine] | < 500
4 | O=S(=O)(Cc1ccccc1)Oc1ccc2c(c1)OC1CNCCC21 (stereo not shown) [Example 637] | > 1000
5 | COc1ccc(S(=O)(=O)c2ccc3oc4c(c3c2)CCNC4C)cc1F (stereo not shown) [Example 285] | > 1000
6 | CC12CCNCC1Oc1cc(S(=O)(=O)c3cccc4c3OC(F)(F)O4)ccc12 (stereo not shown) [Example 460] | < 500
7 | Cc1c(S(=O)(=O)c2ccc3c4c(oc3c2)C(C)(C)NCC4)ccc[n+]1[O-] [Example 374] | > 1000
8 | O=S(=O)(Oc1ccc2c(c1)C1CCNCC1O2)c1csc(C(F)(F)F)c1-c1ccccc1 (stereo not shown) [Example 747] | 500 to 1000
9 | NC(=O)COc1cccc(S(=O)(=O)c2ccc3c(c2)OC2CNCCC32)c1 (stereo not shown) [Example 563] | > 1000
10 | CC12CCNCC1Oc1ccc(OS(=O)(=O)Cc3ccc(Cl)cc3)cc12 (stereo not shown) [Example 789] | > 1000
11 | 1,2,3,4,4a,9a-hexahydro[1]benzofuro[2,3-c]pyridin-7-yl naphthalene-2-sulfonate [Example 660] | < 500
12 | [O-][S+](c1ccc2oc3c(c2c1)CCNC3)c1cccc(F)c1F (stereo not shown) [Example 442] | > 1000
13 | CC12CCNCC1Oc1ccc(OS(=O)(=O)c3cc4ccccc4s3)cc12 (stereo not shown) [Example 773] | < 500
14 | CC(=O)Nc1ccc(S(=O)(=O)c2ccc3oc4c(c3c2)CCNC4)cc1 [Example 272] | 500 to 1000
15 | COc1ccc(S(=O)(=O)c2ccc3c(c2)C2CCNCC2O3)cc1OC (stereo not shown) [Example 171] | > 1000
16 | O=S(=O)(CCc1ccccc1)Oc1ccc2c(c1)C1CCNCC1O2 (stereo not shown) [Example 755] | > 1000

Row | Compound | Ki [nM]
17 | CC12CCNCC1Oc1ccc(OS(=O)(=O)Cc3cccc(Cl)c3)cc12 (stereo not shown) [Example 791] | < 500
18 | CNC(=O)c1c(F)cccc1S(=O)(=O)c1ccc2c(c1)OC1CNCCC21 (stereo not shown) [Example 477] | > 1000
19 | CC1(C)NCCC2c3ccc(S(=O)(=O)c4cccc(F)c4)cc3OC21 (stereo not shown) [Example 624, 7-[(3-Fluorophenyl)sulfonyl]-1,1-dimethyl-1,2,3,4,4a,9a-hexahydro[1]benzofuro[2,3-c]pyridine] | < 500
20 | CC(C)C1NCCc2c1oc1cc(S(=O)(=O)c3cccc(Cl)c3)ccc21 (stereo not shown) [Example 505] | < 500
21 | O=S(=O)(Oc1ccc2c(c1)OC1CNCCC21)c1cccc(Cl)c1Cl (stereo not shown) [Example 678] | < 500
22 | Cn1cnc(S(=O)(=O)Oc2ccc3c(c2)OC2CNCCC32)c1 (stereo not shown) [Example 639] | > 1000
23 | O=S(=O)(c1ccc2oc3c(c2c1)CCNC3)c1ccccn1 [Example 353] | < 500
24 | CCN1CCC2c3ccc(S(=O)(=O)c4ccccc4)cc3OC2C1 (stereo not shown) [Example 605] | 500 to 1000
25 | CC12CCNCC1Oc1cc(S(=O)(=O)c3cncc(C(F)(F)F)c3)ccc12 (stereo not shown) [Example 431] | > 1000
26 | COc1cccc(S(=O)(=O)Nc2ccc3c(c2)C2CCNCC2O3)c1 (stereo not shown) [Example 822] | > 1000
27 | Cc1ncccc1S(=O)(=O)c1ccc2c3c(oc2c1)C(C)(C)NCC3 [Example 375] | < 500
28 | CC12CCNCC1Oc1ccc(OS(=O)(=O)c3cc4ccccc4o3)cc12 (stereo not shown) [Example 765] | 500 to 1000
29 | CC(C)Oc1ccccc1S(=O)(=O)c1ccc2c(c1)OC1CNCCC21 (stereo not shown) [Example 406] | < 500
30 | CC(C)Oc1cccc([S+]([O-])c2ccc3c4c(oc3c2)CNCC4)c1 (stereo not shown) [Example 216] | < 500
31 | CC12CCNCC1Oc1cc(S(=O)(=O)c3cccc(F)c3)ccc12 (racemic) [Example 11, 7-[(3-fluorophenyl)sulfonyl]-4a-methyl-1,2,3,4,4a,9a-hexahydro[1]benzofuro[2,3-c]pyridine] | < 500

The remaining lines, values ahead:

Row | Ki [nM] | Compound
32 | < 500 | CC1(C)CNC2(CCOCC2)c2oc3cc(S(=O)(=O)c4cccc(F)c4)ccc3c21 [Example 2, 7-[(3-fluorophenyl)sulfonyl]-4,4-dimethyl-2′,3,3′,4,5′,6′-hexahydro-2H-spiro[1-benzofuro[2,3-c]pyridine-1,4′-pyran]]
33 | < 500 | COc1cc(OC2CCCC2)cc(S(=O)(=O)c2ccc3c(c2)OC2CNCCC32)c1 (stereo not shown) [Example 586]
34 | < 500 | COc1cccc(S(=O)(=O)c2ccc3c(c2)OC2CNCCC32)c1F (stereo not shown) [Example 416]
35 | < 500 | O=S(=O)(c1ccc(Oc2ccccc2)cc1)c1ccc2c3c(oc2c1)CNCC3 [Example 201]
36 | < 500 | COc1cccc(S(=O)(=O)c2ccc3oc4c(c3c2)CCNC4)c1 [Example 246]
37 | < 500 | COc1ccc(S(=O)(=O)c2ccc3c4c(oc3c2)CNCC4)cc1F [Example 194]
38 | < 500 | O=S(=O)(c1ccc2c3c(oc2c1)CNCC3)c1cccc(F)c1F [Example 432]
39 | < 500 | Cc1ccc(S(=O)(=O)c2ccc3c(c2)OC2CNCCC32)cc1 (stereo not shown) [Example 121]
40 | < 500 | O=S(=O)(c1cccc(Cl)c1)c1ccc2c3c(oc2c1)C1(CCOC1)NCC3 (stereo not shown) [Example 303]
41 | < 500 | O=S(=O)(c1cc(F)cc(Cl)c1)c1ccc2c(c1)OC1CNCCC21 (stereo not shown) [Example 163]
42 | < 500 | O=S(=O)(c1ccc2c3c(oc2c1)CNCC3)c1cccnc1Cl [Example 436]
43 | < 500 | COC(=O)CCCCOc1cccc(S(=O)(=O)c2ccc3c(c2)OC2CNCCC32)c1 (stereo not shown) [Example 556]
44 | < 500 | Cc1cccc(S(=O)(=O)c2ccc3c(c2)OC2CNCCC32)c1 (stereo not shown) [Example 141]
45 | < 500 | O=S(=O)(c1ccc(Oc2ccccc2)cc1)c1ccc2oc3c(c2c1)CCNC3 [Example 248]
46 | < 500 | CC(C)Oc1cccc(S(=O)(=O)c2ccc3c(c2)OC2CNCCC32)c1 (stereo not shown) [Example 159]
47 | < 500 | O=S(=O)(Nc1ccc2c(c1)C1CCNCC1O2)c1cc2ccccc2s1 (stereo not shown) [Example 834]
48 | < 500 | CC1(C)NCCc2c1oc1cc(S(=O)(=O)c3cccnc3C(F)(F)F)ccc21 [Example 378]
49 | < 500 | CC(C)Oc1cccc(S(=O)(=O)c2ccc3c4c(oc3c2)C2(CCOCC2)NCC4)c1 [Example 44, 7-{[3-(propan-2-yloxy)phenyl]sulfonyl}-2′,3,3′,4,5′,6′-hexahydro-2H-spiro[1-benzofuro[2,3-c]pyridine-1,4′-pyran]]
50 | < 500 | O=S(=O)(c1cncc(F)c1)c1ccc2c3c(oc2c1)CNCC3 [Example 441]
51 | < 500 | O=S(=O)(c1cc(Cl)cc(Cl)c1)c1ccc2c3c(oc2c1)CNCC3 [Example 211, 7-[(3,5-dichlorophenyl)sulfonyl]-1,2,3,4-tetrahydro[1]benzofuro[2,3-c]pyridine]
52 | < 500 | COc1cccc(S(=O)(=O)c2cccc3c2OC2CNCCC32)c1 (stereo not shown) [Example 182]
53 | < 500 | O=S(=O)(Oc1ccc2c(c1)OC1CNCCC21)c1cc2ccccc2o1 (stereo not shown) [Example 655]
54 | < 500 | O=S(=O)(c1ccc2oc3c(c2c1)CCNC3)c1cccc(Cl)c1Cl [Example 260, 6-[(2,3-dichlorophenyl)sulfonyl]-1,2,3,4-tetrahydro[1]benzofuro[2,3-c]pyridine]

Same assay, conditions: membranes of CHO-K1 cells with recombinant human 5-HT6, 4 nM [3H]LSD; specific data; read-out: h5-HT6 (Ki)

Row | Compound | Ki [nM]
55 | 1,2,3,4,4a,9a-hexahydro[1]benzofuro[2,3-c]pyridin-7-yl naphthalene-2-sulfonate [Example 660] | 11.4
